According to PMC4450660, “Biochemical and Structural Characterization of Enolase from Chloroflexus aurantiacus: Evidence for a Thermophilic Origin” (Frontiers in Bioengineering and Biotechnology, 2015):

Biological target: T1, EnoCa (enolase-1 from Chloroflexus aurantiacus) (Chloroflexus aurantiacus, UniProt A9WCM4)
T1 construct: gene eno; native protein purified from C. aurantiacus cells, untagged; homodimer, subunit ~46 kDa, total ~92-96 kDa
Assay: X-ray crystal structure of the complex
Assay type: binding
Conditions: active site, closed conformation, second Mg2+ modelled; crystals at pH 9.0

T1 sequence (A9WCM4 whole entry): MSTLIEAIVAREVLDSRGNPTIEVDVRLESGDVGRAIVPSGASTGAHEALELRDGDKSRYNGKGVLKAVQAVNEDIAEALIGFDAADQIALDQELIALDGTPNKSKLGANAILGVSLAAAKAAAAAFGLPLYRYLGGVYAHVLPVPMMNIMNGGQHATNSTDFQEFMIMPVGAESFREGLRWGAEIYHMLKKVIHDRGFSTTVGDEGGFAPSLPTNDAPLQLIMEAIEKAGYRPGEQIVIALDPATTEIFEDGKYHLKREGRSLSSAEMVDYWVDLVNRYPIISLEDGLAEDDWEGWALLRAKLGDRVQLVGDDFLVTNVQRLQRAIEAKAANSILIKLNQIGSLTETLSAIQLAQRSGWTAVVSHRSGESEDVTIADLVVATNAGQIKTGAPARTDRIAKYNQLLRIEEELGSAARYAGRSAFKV

C=C(OP(=O)(O)O)C(=O)O [phosphoenolpyruvate]
X-ray crystal structure of the complex: PEP itself is bound by Glu165, Glu206, Lys338, Arg367, and Ser368
